The values below are quoted from earlier work in patent US20220082565A1, “THE FGF19-CHOLESTYRAMINE (F-CME) TEST AS A TWO-STAGE METHOD FOR ROUTINE CANCER SCREENING” (UNIVERSITY OF CENTRAL FLORIDA RESEARCH FOUNDATION, INC., priority 2020, published 2022).

The structures appear in SMILES notation.

The data set relates to FGF19 transcripts. The note with it: physiological concentrations of bile acids, explants of ileal mucosa.

Turning to `C[C@H](CCC(=O)O)[C@H]1CC[C@H]2[C@@H]3[C@H](O)C[C@@H]4C[C@H](O)CC[C@]4(C)[C@H]3CC[C@]12C` [chenodeoxycholic acid], the “stimulation of human FGF19 transcripts” value was “approximately 300 fold”.
For `CC(CCC(=O)NCC(=O)O)C1CCC2C3C(O)CC4CC(O)CCC4(C)C3CCC12C` (centres unmarked) [glycochenodeoxycholic acid], the “stimulation of human FGF19 transcripts” value is given as “approximately 300 fold”.
